Measured values taken from US8759300B2, “Polypeptides and methods of use” (The Research Foundation for the State University of New York, priority 2007, dated 2014).
Entries after “also recorded” stand apart in the source; their conditions may differ. No end group written: not given here.

Tests used:
[1] = target: T1, PDGF-BB (Homo sapiens, UniProt P01127); assay: Equilibrium binding of 125I-PDGF-BB to FN, FN domains and peptides; conditions: for PDGF-BB binding, in words: equilibrium binding and/or plasmon resonance; for Kd: equilibrium binding
T1 sequence (P01127 82-190 limits assumed): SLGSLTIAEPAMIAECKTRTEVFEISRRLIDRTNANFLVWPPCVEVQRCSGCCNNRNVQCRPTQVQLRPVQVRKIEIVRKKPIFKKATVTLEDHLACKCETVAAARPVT
Protocol: (§1) 20 μl of 50% v/v peptide-agarose beads are incubated with 125I-PDGF in 0.1 ml of binding buffer (DMEM+2% BSA) at room temperature for 2 hours with rotation. Beads are washed 6 times with DMEM. Bound PDGF-BB are released by the addition of 100 μl of 1M NaOH. The radioactivity bound to FN-beads are quantified in a γ-counter. Nonspecific binding are established from ^125I-PDGF binding to nonconjugated beads, then specific binding derived by subtraction of nonspecific binding from total binding. Binding constants (KD) and Bmax are determined from nonlinear regression of specific binding curves using Prism 4 from GraphPad Software, San Diego, Calif. “Scatchard plots” are derived from the KD and Bmax obtained with non linear regression analysis.

[2] = test system: GFs (TGF-β1, PDGF-BB, VEGF, FGF-2); assay: Binding of growth factors to FN domains, GFs reported together
Protocol: as §1
(§2) In the Biacore2000 system, binding constants from kinetic data are determined by passing varying concentrations of FN peptides (analytes) over chip surfaces which are coupled with PDGF-BB (ligand), respectively. All kinetic experiments are carried out at 20° C. at a flow rate of 20 μl/min. For mass transport experiments, each analyte is injected at a fixed concentration and run at flow rates ranging from 5 to 75 μl/min. All analytes are injected over PDGF-BB ligand surfaces as well as over a control surface for 120 s, followed by 300 s of dissociation in running buffer. Regeneration of the sensor chip for subsequent injections is accomplished by pulse of 0.1% SDS. Mass transport experiments have detected little difference in response at different flow rates thus validating data from kinetic experiments. Sensorgrams are prepared and globally fitted using nonlinear least-squares analysis and numerical integration of the differential rate equations with the Biacore Bioevaluation software. Each sensogram generated using a control surface is substracted from the corresponding experimental sensorgrams, and the resulting curves are transformed to concentration units using the molecular mass of the injected species, the equivalence of 1000 resonance units (RU) per 1 ng/mm^2, and a matrix thickness of 100 nm. Each data set, which consists of a series of sensorgrams from injections of different concentration of analyte over the same surface, are analyzed using kinetic models from Biaevaluation software.

[3] = test system: FN-null cells; assay: FN-null cell survival on surfaces coated with FN domains; type: cell-based, mouse; conditions: for FN-null cell survival / proliferation: FNIII8-11 ± named FN domain, or named FN construct, PDGF-BB added 2 hrs after plating; for FN-null cell survival / proliferation, summary statement: cells plated on named FN construct, or on FNIII8-11 ± named domain; for FN-null cell survival with PDGF at 3 days: surface precoated with 0.15 μM GST-tagged FNIII8-11 ± named FN domain, or named FN construct, PDGF-BB added 1 day after plating
Protocol: To further investigate the response of cells to PDGF-BB bound to FN domains, we investigated the survival response of mouse fibroblasts null for FN (FN−/−), or “FN-null”. First we determined the response of FN-null cells to PDGF-BB in the absence of serum or other sources of exogenous FN. […] Next, FN-null cells were plated on tissue culture plastic surfaces precoated with 0.15 μM GST-tagged FNIII8-11±other FN domains known to have PDGF-BB binding activity and then PDGF-BB added 1 day later. […] Importantly, differential response of FN-null cells, plated on different FN domains, to PDGF-BB was not secondary to differences in attachment as judged by cell counts two hours after plating. The FNIII8-11 central cell binding domain was present in all circumstances.

[4] = target: T1, PDGF-BB; assay: Surface plasmon resonance (Biacore), PDGF-BB; type: binding; conditions: plasmon resonance, kinetic binding
Protocol: as §2, with “Each sensogram generated using a control surface is substracted from the corresponding experimental sensorgrams, and the resulting curves are transformed to concentration units using the molecular mass of the injected species, the equivalence of 1000 resonance units (RU) per 1 ng/mm^2, and a matrix thickness of 100 nm.” left out

[5] = target: TGF-β1 (Homo sapiens, UniProt P01137); assay: Equilibrium binding of TGF-β1 to FN, FN domains and peptides; conditions: for TGF-β1 binding, in words: equilibrium and/or kinetic binding
Chain of TGF-β1 (P01137 279-390 limits assumed): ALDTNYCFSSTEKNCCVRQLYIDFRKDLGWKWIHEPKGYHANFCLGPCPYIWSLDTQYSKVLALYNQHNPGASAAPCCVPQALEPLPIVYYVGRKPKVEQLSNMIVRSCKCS
Protocol: [The source words this procedure for another target and reports this target under the same test.] as §1

[6] = target: T2, VEGF (Homo sapiens, UniProt P15692); assay: Surface plasmon resonance, VEGF; type: binding
T2 sequence (P15692 27-191 isoform P15692-4): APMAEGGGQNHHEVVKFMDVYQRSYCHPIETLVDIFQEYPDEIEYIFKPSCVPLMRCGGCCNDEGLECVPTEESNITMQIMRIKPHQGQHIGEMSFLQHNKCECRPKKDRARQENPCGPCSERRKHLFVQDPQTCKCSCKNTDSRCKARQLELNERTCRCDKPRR

[7] = target: bFGF (FGF-2) (Homo sapiens, UniProt P09038); assay: Equilibrium binding of bFGF (FGF-2) to FN and FN domains
Chain of bFGF (FGF-2) (P09038 143-288): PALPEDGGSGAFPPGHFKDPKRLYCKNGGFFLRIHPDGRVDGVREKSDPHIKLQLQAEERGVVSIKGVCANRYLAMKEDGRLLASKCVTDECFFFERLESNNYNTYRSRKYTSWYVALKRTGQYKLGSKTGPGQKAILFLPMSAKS
Protocol: [The source words this procedure for another target and reports this target under the same test.] as §1

[8] = test system: FN-null cells; assay: FN-null cell assay, peptides added directly to medium on FNIII8-11; type: cell-based, mouse
Protocol: FIG. 6. FN-null fibroblast response to soluble, unconjugated P5 (SEQ ID NO:37). FN-null cells were cultured at 4,000 cells/well in 96 well plates precoated with 0.125 mM of FNIII8-11 in DMEM for 4 hrs, and then further incubated in DMEM+2% BSA with or without the indicated concentrations of Peptide 5 at 37° C. for 3 days. Cells were counted in three 10× fields in each of 4 wells (mean±SD, n−12).
Scrambled variants of peptides 1 and 5 had no activity in these assays.
Variants of peptide 5 derived from fibronectin were generated by removing one amino acid at a time from the N-terminus or C-terminus of Peptide 5 (Table 2). These peptides (P12-P24) were added directly to medium with or without PDGF-BB.

[9] = target: T3, PDGF-BB binding to FNIII1, FNIII12-14 and IIICS (Homo sapiens, UniProt P01127); assay: Inhibition by peptides of PDGF-BB binding to FN domains; conditions: all three FN domains
T3 construct: made in house; host or cells: E. coli BL21DE3LysS (FN domains only)
T3 sequence (P01127 82-190 limits assumed): as the sequence (P01127 82-190 limits assumed) above
Source text: To further localize PDGF-BB binding within FNIIII, we acquired a peptide from the central 76 amino acids (aa) of FNIII1 (FN630-704) (FIG. 4), which has anti-angiogenic properties and promotes FN polymerization. […] Next, we looked for sequence homologies within the two halves of the peptide and discovered the sequence pattern noted above ([QN]-X(1,2)-[ST]-X(0,1)-[IG]-[QS]-[KRQ]-[YTM]-[IG]-X(4,5)-X(0,1)-[KR]-X(1,2)-X(1,2)-[RT]-X(1,2)-[KQTS]-X(2)-T) (SEQ ID NO:30) (see peptides 1-4). […] These findings may explain similar PDGF-BB binding among FN heparin-binding domains, FNIII12-V15, FNIII12-15, FNIII12-14, FNIII12-13, and IIICS. […] Next, we determined if PDGF-BB-binding peptides from FNIII1 could inhibit PDGF-BB binding to FNIII1, FNIII12-14 and IIICS. For initial experiments we selected peptide 1 and peptide 2. For control, we used scrambled peptide 1.

[10] = target: T4, TGF-β1 binding to recombinant FN domain (Homo sapiens, UniProt P01137); assay: Inhibition by peptide of TGF-β1 binding to recombinant FN domains
T4 construct: made in house; host or cells: E. coli BL21DE3LysS (FN domains only)
T4 sequence (P01137 279-390 limits assumed): as the sequence (P01137 279-390 limits assumed) above

[11] = target: T5, bFGF binding to recombinant FN domain (Homo sapiens, UniProt P09038); assay: Inhibition by peptide of bFGF binding to recombinant FN domains
T5 construct: made in house; host or cells: E. coli BL21DE3LysS (FN domains only)
T5 sequence (P09038 134-288 limits assumed): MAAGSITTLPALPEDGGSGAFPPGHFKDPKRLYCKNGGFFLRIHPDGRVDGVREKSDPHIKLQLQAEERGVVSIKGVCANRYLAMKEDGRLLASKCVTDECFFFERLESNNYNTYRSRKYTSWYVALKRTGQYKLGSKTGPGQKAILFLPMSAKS

[12] = target: EGF (Homo sapiens, UniProt P01133); assay: Binding of EGF to FN, FN domains and peptides
Chain of EGF (P01133 971-1023 limits assumed, species assumed): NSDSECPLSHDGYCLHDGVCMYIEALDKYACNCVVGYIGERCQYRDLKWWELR

[13] = target: FGF-1 (Homo sapiens, UniProt P05230); assay: Binding of FGF-1 to FN, FN domains and peptides
Chain of FGF-1 (P05230 whole entry, species assumed, the tested form may be a part): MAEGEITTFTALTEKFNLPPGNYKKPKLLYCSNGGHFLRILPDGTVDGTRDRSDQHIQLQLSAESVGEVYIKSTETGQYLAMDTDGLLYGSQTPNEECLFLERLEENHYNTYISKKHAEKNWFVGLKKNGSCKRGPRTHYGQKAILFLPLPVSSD

[14] = target: TGF-α (Homo sapiens, UniProt P01135); assay: Binding of TGF-α to FN, FN domains and peptides
Chain of TGF-α (P01135 40-89, species assumed): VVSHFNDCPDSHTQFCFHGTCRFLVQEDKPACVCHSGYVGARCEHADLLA

[15] = peptide added directly to media with or without PDGF-BB

## FN70: 70 kDa amino terminus of FN, which includes fibrin and gelatin binding domains
[1]
  PDGF-BB binding, in words: did not
[2]
  Binding of the GFs tested, in words: None of the GFs detectably bound; also recorded: In no case did any GF bind

## FN630-667: half of the 76 aa FNIII1 peptide FN630-704
[1]
  PDGF-BB binding, in words: demonstrated PDGF-BB binding

## FN668-704: half of the 76 aa FNIII1 peptide FN630-704
[1]
  PDGF-BB binding, in words: demonstrated PDGF-BB binding

## FNIII1-2: recombinant FN domain, first and second type III repeat
[3]
  FN-null cell survival / proliferation: enhance survival
[4]
  Kd: 9.1 nM
[1]
  Kd: 37 nM
[2]
  Binding of the GFs tested, in words: all four GFs bound

## FNIII1-11: recombinant FN domain; FNIII1 PDGF-binding domain contiguous with FNIII8-11 cell-binding domain
[3]
  FN-null cell survival in the absence of PDGF-BB: survived
  FN-null cell survival / proliferation: robust proliferation
  FN-null cell survival / proliferation, summary statement: survived in the absence of PDGF-BB and proliferated in its presence
  FN-null cell survival with PDGF at 3 days: best survival response
[5]
  TGF-β1 binding, in words: bound
[6]
  VEGF binding, in words: did not
[1]
  PDGF-BB binding, in words: bound
[7]; equilibrium and/or kinetic binding
  bFGF (FGF-2) binding, in words: did not

## FNIII1: recombinant FN domain, first type III repeat
[3]
  FN-null cell survival with PDGF at 3 days: increased survival
[4]
  Kd: 370 nM
[5]; method not restated (equilibrium and kinetic binding performed)
  Kd: 6.2 nM
[1]
  Kd: 32 nM
[2]
  Binding of the GFs tested, in words: all four GFs bound

## FNIII2: recombinant FN domain, second type III repeat
[2]
  Binding of the GFs tested, in words: all four GFs bound

## FNIII8-11: classic cell-binding domain of FN containing RGD
[3]
  FN-null cell survival / proliferation, summary statement: failed to survive even in the presence of PDGF-BB; also recorded: did not support cell survival
  FN-null cell survival with PDGF at 3 days: failed to survive
[1]
  PDGF-BB binding, in words: did not
[2]
  Binding of the GFs tested, in words: None of the GFs detectably bound; also recorded: In no case did any GF bind

## FNIII8-V15: FN functional domain containing FNIII8-11 plus a GF-binding domain
[3]
  FN-null cell survival / proliferation: robust proliferation
  FN-null cell survival / proliferation, summary statement: survived in the absence of PDGF-BB and proliferated in its presence

## PSHISKYILRWRPK [P12]
[8]; [15]
  FN null cell survival and proliferation: smallest peptide capable of supporting FN-null cell survival or proliferation

## PSLAKKQRFRHRNR
[8]; in the presence of PDGF-BB
  FN null cell survival and proliferation: supported FN null cell survival and proliferation

## QLISIQQYGHQEVTRFDFTTTSTST [peptide 2]
[9]
  Inhibition of PDGF-BB binding to FNIII1, FNIII12-14 and IIICS: neither peptide 2, nor the scramble variant of peptide 1 (FN634-658s), demonstrated inhibition

## QPSHISKY
[5]
  TGF-β1 binding, in words: minimal binding activity

## QPSHISKYILRWRPKNSVGRWKEAT [peptide 1]
[10]
  Inhibition of TGF-β1 binding to any recombinant FN domain: completely inhibited
[9]
  Inhibition of PDGF-BB binding to FNIII1, FNIII12-14 and IIICS: marked inhibition
[8]; [15]
  FN null cell survival and proliferation: supported FN null cell survival and proliferation
[11]
  Inhibition of bFGF binding to any recombinant FN domain: completely inhibited

## QPSVGQQMIFEEHGFRRTTPPTTAT [peptide 4]
[5]; equilibrium binding
  Kd: 100 nM

## anastellin: 76-aa peptide within FNIII1; anti-angiogenic, promotes FN polymerization [reference compound]
[1]
  PDGF-BB binding, in words: demonstrated PDGF-BB binding
[2]
  Binding of the GFs tested, in words: all but VEGF bound

## intact FN: intact human plasma fibronectin (SEQ ID NO:1)
[12]
  EGF binding, in words: did not
[3]
  FN-null cell survival / proliferation: robust proliferation
  FN-null cell survival / proliferation, summary statement: survived in the absence of PDGF-BB and proliferated in its presence
[5]; equilibrium binding
  Kd: 53 nM
[13]
  FGF-1 binding, in words: did not
[1]
  Kd: 49 nM
[7]; equilibrium binding, intact FN, read-out: KD, FGF-2 (bFGF) binding
  Kd: 44 nM
[14]
  TGF-α binding, in words: did not
